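Growth conditions: 96-well plates. Treatment: test compound, 48 hours, 5 concentrations. Analysis: linear interpolation between bracketing concentrations; unreached endpoints set to highest concentration. GI50 = concentration required for 50% inhibition of growth.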 Calls of active or inactive are those of the source. Rule as the data show it: active = GI50 up to about 1.1 µM and inactive = higher.
How the values were obtained:
Assay in all cases: growth of human tumour cells (NCI), 48 h
Hs-578T = test system: Hs-578T
OVCAR-8 = test system: OVCAR-8
SN12C = test system: SN12C
HOP-92 = test system: HOP-92
PC-3 = test system: PC-3
DU-145 = test system: DU-145
A549 = test system: A549
OVCAR-3 = test system: OVCAR-3
EKVX = test system: EKVX
NCI-H226 = test system: NCI-H226
NCI-H522 = test system: NCI-H522
SNB-19 = test system: SNB-19
CAKI-1 = test system: CAKI-1
RPMI-8226 = test system: RPMI-8226
K562 = test system: K562
T47D = test system: T47D
HCT-116 = test system: HCT-116
SNB-75 = test system: SNB-75
A498 = test system: A498

For O=C(O)c1cc2ccccc2c(/N=N/c2ccc(S(=O)(=O)Nc3ccccn3)cc2)c1O, the GI50 (Hs-578T) was > 100 µM (inactive), the GI50 (OVCAR-8) was > 100 µM (inactive) and the GI50 (SN12C) was > 100 µM (inactive). The GI50 (HOP-92) was > 100 µM (inactive), the GI50 (PC-3) was > 100 µM (inactive) and the GI50 (DU-145) was > 100 µM (inactive). The GI50 (A549) was > 100 µM (inactive), the GI50 (OVCAR-3) was > 100 µM (inactive) and the GI50 (EKVX) was > 100 µM (inactive). For the same compound, the GI50 (NCI-H226) was > 100 µM (inactive), the GI50 (NCI-H522) was > 100 µM (inactive) and the GI50 (SNB-19) was < 0.01 µM (active). For the same compound, the GI50 (CAKI-1) was > 100 µM (inactive), the GI50 (RPMI-8226) was > 100 µM (inactive) and the GI50 (K562) was > 100 µM (inactive). For the same compound, the GI50 (T47D) was > 100 µM (inactive), the GI50 (HCT-116) was > 100 µM (inactive) and the GI50 (SNB-75) was > 100 µM (inactive).

For O=C(NC(Nc1ccc(F)c(Cl)c1)(C(F)(F)F)C(F)(F)F)C(C(F)(F)F)C(F)(F)F, the GI50 (Hs-578T) was 17.6 µM (inactive), the GI50 (OVCAR-8) was 25.9 µM (inactive) and the GI50 (SN12C) was 32.5 µM (inactive). The GI50 (HOP-92) was 29.2 µM (inactive), the GI50 (PC-3) was 24.8 µM (inactive) and the GI50 (DU-145) was 27.5 µM (inactive). For the same compound, the GI50 (A549) was 27.2 µM (inactive), the GI50 (OVCAR-3) was 26.9 µM (inactive) and the GI50 (EKVX) was 68.4 µM (inactive). For the same compound, the GI50 (NCI-H226) was 24.1 µM (inactive), the GI50 (NCI-H522) was 16.8 µM (inactive) and the GI50 (A498) was 44.3 µM (inactive). For the same compound, the GI50 (SNB-19) was 30.9 µM (inactive), the GI50 (CAKI-1) was 32.4 µM (inactive) and the GI50 (RPMI-8226) was 20 µM (inactive). For the same compound, the GI50 (K562) was 14.5 µM (inactive), the GI50 (T47D) was 44.3 µM (inactive) and the GI50 (HCT-116) was 16 µM (inactive).

With COc1cc(C#CC(=O)OC/C=C/c2ccc3c(c2)OCO3)cc(OC)c1OC the GI50 (Hs-578T) was 22.2 µM (inactive), the GI50 (OVCAR-8) was 29.1 µM (inactive) and the GI50 (SN12C) was 31.2 µM (inactive). For the same compound, the GI50 (HOP-92) was 17.8 µM (inactive), the GI50 (PC-3) was 21.8 µM (inactive) and the GI50 (DU-145) was 42.6 µM (inactive). The GI50 (A549) was 33.7 µM (inactive), the GI50 (OVCAR-3) was 26.5 µM (inactive) and the GI50 (EKVX) was 31.6 µM (inactive). The GI50 (NCI-H226) was 21.4 µM (inactive), the GI50 (A498) was 5.53 µM (inactive) and the GI50 (SNB-19) was 42.9 µM (inactive). For the same compound, the GI50 (CAKI-1) was 22.1 µM (inactive), the GI50 (RPMI-8226) was 20.5 µM (inactive) and the GI50 (K562) was 28.9 µM (inactive). For the same compound, the GI50 (T47D) was 59.6 µM (inactive) and the GI50 (HCT-116) was 22.7 µM (inactive).

O=C1C=CC2(O[C@H](c3ccccc3)[C@@H](c3ccccc3)O2)C(SC(=O)c2ccccc2)C1 (stereo not given in full) was tested, and the GI50 (Hs-578T) was 1.62 µM (inactive), the GI50 (OVCAR-8) was 0.201 µM (active) and the GI50 (SN12C) was 2.33 µM (inactive). For the same compound, the GI50 (PC-3) was 2.13 µM (inactive), the GI50 (DU-145) was 3.34 µM (inactive) and the GI50 (A549) was 4.49 µM (inactive). The GI50 (OVCAR-3) was 1.79 µM (inactive), the GI50 (EKVX) was 0.182 µM (active) and the GI50 (NCI-H226) was 1.74 µM (inactive). For the same compound, the GI50 (A498) was 7.71 µM (inactive), the GI50 (SNB-19) was 2.19 µM (inactive) and the GI50 (CAKI-1) was 1.67 µM (inactive). The GI50 (RPMI-8226) was 0.979 µM (active), the GI50 (K562) was 1.32 µM (inactive) and the GI50 (T47D) was 2.06 µM (inactive). For the same compound, the GI50 (HCT-116) was 0.355 µM (active) and the GI50 (SNB-75) was 2.09 µM (inactive).

Reference: ChEMBL document CHEMBL1201862, “PubChem BioAssay data set” (2004)
